According to patent publication US8518903B2, “Use of toll-like receptor-9 agonists” (University of Pittsburgh—of the Commonwealth System of …, priority 2007, dated 2013):

Legend:
IEC-6 enterocytes = assay: Assessment of NFkB activation (nuclear:cytoplasmic ratio of p65) in IEC-6 enterocytes; type: cell-based; conditions: IEC-6 cells, LPS 50 μg/ml, CpG-DNA 1 μM, polymixin B 10 μg/ml, 1 hour
Procedure: FIG. 21. Nuclear:cytoplasmic ratio of NFκB, indicating the extent of translocation of NFκB into the nucleus, in IEC-6 cells which were either untreated (control); treated with LPS; treated with LPS and CpG; treated with LPS, CpG and polymixin B; treated with CpG; or treated with polymixin B. The concentrations used were LPS at […] CpG-DNA at 1 μM, and polymixin B at 10 μg/ml.
Assessment of NFkB activation. IEC-6 enterocytes were treated with LPS (50 μg/ml, Sigma-Aldrich, St. Louis, Mo.) and/or CpG-DNA (1 μM) either alone or in combination for 1 hour and immunostained with antibodies against the p65 subunit of NF-κB. Quantification of nuclear translocation was performed as adapted from Ding, et al. J Biol. Chem. 1998 Oct. 30; 273(44):28897-905. […] The average NF-κB p65 intensity of the cytoplasmic area was determined by subtracting the area and integrated intensity of the nuclear ROI from the nuclear+cytoplasmic ROI and dividing the cytoplasmic integrated intensity by the cytoplasmic area. The extent of p65 staining in the nucleus versus the cytoplasm (i.e. the nuclear to cytoplasmic ratio) was calculated for each cell by dividing the nuclear average NF-κB p65 intensity by the cytoplasmic average NF-κB p65 intensity. Nuclear to cytoplasmic ratio was calculated for more than 200 cells per treatment group for more than 4 separate experiments.

murine intestinal mucosa = assay: LPS-dependent signaling and inflammation in the murine intestinal mucosa in vivo; parameters: species or system mouse; conditions: LPS + CpG vs LPS
Text: FIG. 10. Experimental design to assess whether TLR9 activation affects TLR4-mediated inflammation in vivo.
(A). Western blot showing levels of signaling molecules phospho-p38 and phospho-ERK (relative to actin) in mice which were either untreated (Ctrl) or treated with LPS, LPS+CpG, or CpG. (B) Bar graph showing serum levels of the inflammatory cytokine IL-6 in mice which were either untreated (Ctrl) or treated with LPS, LPS+CpG, or CpG.
Experiments were then designed to determine whether the above phenomena, observed in vitro, could be confirmed in vivo (see FIG. 10).

[1] = test system: murine model of endotoxemia; assay: Enterocyte apoptosis (caspase 3) in murine model of endotoxemia; type: in vivo, mouse; conditions: 5 mg/kg LPS + 1 mg/kg CpG-DNA vs LPS, 3 hours
Procedure: (A) Control mice (injected with saline). (B) Mice injected with 5 mg/kg of LPS. (C) Mice injected with 5 mg/kg of LPS and 1 mg/kg of CpG. (D-G) Immunohistochemical staining of terminal ileum from newborn mice that were either breast fed (“control”) or induced to develop NEC (“NEC”). Sections were stained for caspase 3 as a marker of apoptosis and enterocyte loss; positive staining is indicated by a small arrowhead. (D) Control injected with saline. (E) NEC injected with saline. (F) Control injected with 1 mg/kg CpG-DNA daily for four days. (G) NEC injected with 1 mg/kg CpG-DNA daily for four days. (H) Bar graph summarizing results, showing percent apoptosis in terminal ileum as depicted in (D)-(G).
Induction of necrotizing enterocolitis. All mice were housed and cared for at Rangos Research Center, Children's Hospital of Pittsburgh. All experiments were approved by the Children's Hospital of Pittsburgh Animal Care Committee and the Institutional Review Board of the University of Pittsburgh (protocol 45-06). Swiss-Webster (CfW) and C57/B1-6 mice were obtained from Jackson Laboratories (Jackson Laboratory, Bar Harbor, Me.). Endotoxemia was induced in 2 week old C57/B16 or CpG1 (TLR9-mutant) mice by the intraperitoneal injection of LPS (Escherichia coli 0111:B4 purified by gel-filtration chromatography, >99% pure, 5 mg/kg, Sigma-Aldrich, St. Louis, Mo.). […]

## 5′-TCCATGACGTTCCTGACGTT-3′ [CpG-DNA]
IEC-6 enterocytes
  LPS-induced translocation of NFκB into the nucleus (nuclear:cytoplasmic ratio): significantly inhibited translocation
Murine intestinal mucosa; mice
  serum IL-6 level: attenuated
Murine intestinal mucosa; murine intestinal mucosa
  level of phosphorylated ERK (LPS-dependent signaling): attenuated
  level of phosphorylated p38 (LPS-dependent signaling): attenuated
[1]
  apoptosis in enterocytes of terminal ileum (caspase 3): substantially reduced
